Results: patent publication US8367342B2, “Cardiac hypertrophy” (Lead Pharma Drug Development IP B.V., priority 2006, dated 2013)

Test system: neonatal rat ventricular myocytes
Test: Cardiomyocyte hypertrophy (a-actinin staining, cell surface area) in cultured neonatal rat cardiomyocytes
Assay type: cell-based
Design: dose or concentration left out as unconfirmed
Details: cells treated with the control siRNA; AdCnA infection or phenylephrine
Description: Cardiomyocyte cultures and siRNA transfection. Neonatal rat ventricular myocytes were obtained as described previously in detail^6. Neonatal ventricular rat myocytes were obtained by enzymatic dissociation of 1-2 day old rat neonatal ventricles. Ventricles were stored in HEPES buffered DMEM (pH. 7.4) prior to multiple rounds of enzymatic digestion in DMEM nutrient mixture F-12 Ham base (Sigma) supplemented with 0.7 mg/ml collagenase type 2 (Invitrogen) and 1 mg/ml […] (Sigma). Cells were collected by centrifugation at 61×g for 10 min., resuspended in neonatal calf serum (Invitrogen) and stored in an incubator at 37° C. All cell suspensions were pooled, centrifuged at 61×g for 10 min. and resuspended in DMEM (Invitrogen) supplemented with 10% horse serum (Invitrogen) and 5% fetal calf serum (Invitrogen). […]
Immunocytochemistry and confocal microscopy. […] Cells were washed 3 times with PBS for 5 minutes, mounted with coverslips in 0.1 M Tris-HCl (pH 9.5)-glycerol (3:7) including 50 mg/ml n-propylgallate as anti-fading reagent, and analyzed by confocal microscopy using a Zeiss LSM 510 META instrument. […] Cell surface areas were determined using SPOT-imaging software (Diagnostic Instruments) on 80-100 GFP-positive cardiomyocytes in 10 to 20 fields in three independent experiments. […]

## CNC[C@H](O)c1cccc(O)c1 [PE, phenylephrine]
  hypertrophy response: robust hypertrophy response
